By melting point is commonly meant the temperature, or range, at which the solid turns liquid. As to `COCn1ccnc1C(O)(c1ccccc1)c1ccc(Cl)cc1Cl` (stereo unspecified), the melting point lay in the range of 161 to 162 °C. Under `Nc1ccccc1NC(=O)c1ccc(C(=O)Nc2cccc(Nc3nc(-c4cccnc4)cs3)c2)cn1` stands 148 to 150 °C. The value for `O=C(Nc1ccccc1O)c1nnn[nH]1` was 220 to 223 °C; that for `CC1C[C@H]2[C@@H](O1)[C@H](N=[N+]=[N-])C(=O)N2Cc1ccccc1` (relative stereo) was 70 to 73 °C. On to `O=C(Cl)Sc1nnnn1-c1ccccc1`, for which the melting point was in the range of 112 to 114 °C. Consider `Cc1ccc(C(C)(C)CCCCC(=O)O)cc1C`, for which the melting point is 71 to 73 °C. For `CS(=O)c1ccc(-c2nn3c(c2-c2ccncc2)NCCC3)cc1` (stereo unspecified), the melting point is 201 to 202 °C.

In the case of `O=C=Nc1ccc(Oc2cc(Cl)ncn2)cc1`, the melting point was 103 °C. Turning to `Cc1cc(C(N)=O)ncc1C(c1c(F)ccc(F)c1F)S(=O)(=O)CCCC(F)(F)F` (stereo unspecified), the melting point fell in the range of 201 to 203 °C. Under `COC(=O)c1ccc(C(O)COc2ccc3c(c2)C(C)(C)CCC3(C)C)cc1` (stereo unspecified) stands 92 to 96 °C; under `COC(=O)CCc1cnoc1-c1ccc2c(c1)OCO2`, 84 to 85 °C.

In the case of `OC(c1ccc2c(c1)OCCN2)(C(F)(F)F)C(F)(F)F`, the melting point fell in the range of 119 to 120 °C. In turn, `CC1(C)c2ccccc2C(C)(C)C1(S)CC#N` had a melting point of 113 to 114 °C.

For `COc1ccc(C2=NN(C3CCN(CCCCCCN4C(=O)c5ccccc5C4=O)CC3)C(=O)[C@@H]3CC=CC[C@H]23)cc1OC`, the melting point was 39 to 44 °C. Take `N#Cc1cc(F)ccc1N1CCN(Cc2cn3cc(Cl)ccc3n2)CC1`: the melting point was 179 to 180 °C. Molecule `Nc1cccc(-c2ccc(-c3ccccc3)cc2)c1N` gave a melting point of 203 to 206 °C. Regarding `CC(=O)NC[C@H]1CN(c2ccc(N3CCN(C(=O)CCC(=O)c4ccc(Cl)cc4)CC3)c(F)c2)C(=O)O1`, the melting point is 208 to 209 °C. Molecule `CCOC(=O)C1Cc2cc(Cl)ccc2NC1=O` (stereo unspecified) yielded a melting point of 173 to 175 °C. `COCC(=O)C1CCC2C3CCC4CC(O)CCC4(C)C3CCC12C` (stereo unspecified) displayed a melting point of 163 to 164 °C. Under `CC(=O)c1ccc2c(c1)CC(=O)N2CC(F)(F)F` stands 170 to 171 °C; under `O=C(O)C(=O)CC(=O)c1cn(Cc2ccc(F)cc2)c2ccccc12`, 161 to 162 °C.

Consider `O=P(O)(O)C1=CCCCC1`, for which the melting point was 128 °C. For `Cc1c(OCC(F)(F)F)ccnc1CSc1nc2ccccc2n1NCC(C)C`, the melting point was in the range of 82 to 83 °C.

The molecule `CC1=CC(O)C(OC(=O)C=Cc2ccc(N)cc2)C(C)(C)CC1=O` (stereo unspecified) returned a melting point of 49 to 50 °C.

`CCCCCCNC(=O)OC1CCN(C(=O)Oc2ccc(Oc3ccc(C)cc3)cc2)CC1` registered a melting point of 84 to 85 °C.

For `CC(C)(C)OC(=O)NCCCCCC(=O)O`, the melting point was in the range of 39 to 42 °C.

For the molecule `CC(=O)CC(C)(C)Cn1cnc2c(N)nc3ccccc3c21`, the melting point lay in the range of 214 to 216 °C. As to `OCCCCOc1nc(F)c(Cl)cc1Cl`, the melting point was in the range of 38 to 39 °C. As to `CCCCCCCCc1c(C)nc2cc(C)nn2c1N`, the melting point was determined as 169 °C. Molecule `CC(C)(C)C(O)(CC(Br)=CBr)Cn1cncn1` (stereo unspecified) yielded a melting point of 81 °C. `CCOC(=O)C1(C(=O)OCC)CCc2cc3c(cc2C1c1cc(OC)c(O)c(OC)c1)OCO3` (stereo unspecified) registered a melting point of 147 to 148 °C.

On to `CN(C)c1nnc(-c2ccc3ncn(-c4ccc(OC(F)(F)F)cc4)c3c2)o1`, for which the melting point fell in the range of 224 to 225 °C. Regarding `ClCc1cccc2c1CCCC2`, the melting point fell in the range of 51 to 52 °C. On to `Cc1cccc(C=NN2CCN(C(c3ccccc3)c3ccccc3)CC2)n1`, for which the melting point was 130 to 132 °C. For the molecule `N#CCNCCc1c[nH]c2ccc(Cl)cc12`, the melting point is 80 °C. Under `CCN1C(=O)c2cccnc2N(CC)c2ccccc21` stands 108 to 110 °C; under `CCOC(=O)C(=O)c1csc(NC(c2ccccc2F)c2ccccc2F)n1`, 122 to 124 °C. As to `COc1ccc(CC2CCN(C(=O)C(=O)Nc3ccc4c(c3)CC(=O)N4)CC2)cc1`, the melting point was 215 to 217 °C.

In turn, `CNC(=S)NCCCSc1cncc(NC(N)=NCC(F)(F)F)n1` yielded a melting point of 165 to 167 °C. As to `C1=CSC(Sc2ccccc2)(c2ccc(Sc3ccccc3)s2)C1` (stereo unspecified), the melting point was in the range of 110 to 112 °C. For the molecule `CCOC(=O)C1CCN(c2ccc(N)cc2C#N)CC1`, the melting point stood at 98 °C.

For the molecule `CCc1ccc(S(N)(=O)=O)cc1`, the melting point lay within 104 to 108 °C.

Take `O=C(OCc1ccc(-c2ccccc2)cc1)c1cccc(CCl)c1`: the melting point turned out to be 102 °C. With `C#CCOc1cc(C(=O)OC)cc(OC)c1OC`, the melting point fell in the range of 72 to 73.5 °C. As for `c1ccc2c(Cn3ccnc3)noc2c1`, the melting point was 52 to 55 °C. For `O=C(c1cc(Br)c(O)c(Br)c1)c1c(Cc2ccccc2)oc2ccccc12`, the melting point is 156 to 158 °C. In turn, `CC(=O)Oc1ccccc1-c1[nH]c2ccc(Cl)cc2c1-c1ccc(S(C)(=O)=O)cc1` came in with a melting point of 238 to 240 °C. The molecule `CCNS(=O)(=O)c1ccc(C2=C(c3ccccc3)C(=O)C(C)(C)O2)cc1Cl` returned a melting point of 72 to 73 °C.

Molecule `CC(C)(NS(=O)(=O)c1ccc2c(Cl)cnc(Cl)c2c1)C(N)=O` displayed a melting point of 220 to 222 °C. `Nc1ccc(N2CCN(C(C(=O)NCC(F)(F)F)c3ccccc3)CC2)cc1` (stereo unspecified) returned a melting point of 136 °C. Take `Clc1ccc2c(c1)C(c1ccccc1)=NCc1nnc(COC(c3ccccc3)c3ccccc3)n1-2`: the melting point was 202 to 203 °C. Under `CC(=O)C1=C(C)CC2C3CCC4CC(O)CCC4(C)C3C(=O)CC12C` (stereo unspecified) stands 230 to 231 °C; under `COc1ccc(CNC(=O)c2c(NC(=O)c3ccc(C(=O)O)cc3)sc3c2CCCC3)cc1OC`, greater than 270 °C. Molecule `O=C(O)COc1cccc(NCc2nc(-c3ccccc3)c(-c3ccccc3)o2)c1` showed a melting point of 146 to 151 °C. `Cc1c(Br)c(O)c(Br)c(C)c1-c1c(C)c(Br)c(O)c(Br)c1C` came in with a melting point of 242 to 245 °C. The value for `COC(=O)c1c(-c2ccc(F)cc2)c2cc(OCc3ccccc3)ccc2c(=O)n1CC(C)C` was 118 to 119 °C; that for `O=C(CN(C(=O)C(=O)N(CC(=O)OCc1ccccc1)S(=O)(=O)C(F)(F)F)S(=O)(=O)C(F)(F)F)OCc1ccccc1` was 53 to 55 °C; that for `CC(=O)C(=NNc1cccc2ccccc12)Sc1ccc(C(C)C)cc1` was 130 to 133 °C. For `CCOC(=O)CCNC(=O)c1ccc2c(CC)nn(C3CCCC3)c2c1`, the melting point was in the range of 74 to 76 °C. The value for `CSCCN1C(=O)N2CCOC2(c2ccccc2)c2cc(Cl)ccc21` (stereo unspecified) was 145 to 146 °C; that for `CCCCc1c(C)c2ccc(OCCCN3CCN(Cc4ccc(Cl)cc4)CC3)cc2[nH]c1=O` was 148 to 149 °C. The value for `CC(C)(c1ccc(S(=O)(=O)N(CCO)CCO)cc1[N+](=O)[O-])[N+](=O)[O-]` was 109 to 110 °C; that for `Cn1nc(C(F)(F)F)nc1Oc1cc(On2c(=O)cc(C(F)(F)F)n(C)c2=O)c(F)cc1Cl` was 138 to 140 °C.

Molecule `C[C@]1(COC(=O)N2CCCc3cc(Cl)ccc32)Cn2cc([N+](=O)[O-])nc2O1` came in with a melting point of 172 to 174 °C. The value for `COC(=O)c1cnco1` was 35 to 50 °C. The molecule `O=C1CC(c2c(-c3ccc[nH]3)[nH]c3ccc(Cl)cc23)C(=O)N1` (stereo unspecified) displayed a melting point of 138 to 144 °C.

`CC(=O)NCCc1ccc(CCl)cc1`: the melting point fell in the range of 86 to 88 °C. As to `Cc1cc(CO)c(C)cc1O`, the melting point fell in the range of 164 to 165 °C.

Turning to `COc1ccc(Cc2ccc(NC3=NCCN3)cc2)s1`, the melting point lay in the range of 122 to 123 °C. Consider `COC(=O)c1cnnn1C1OC(COC(=O)c2ccccc2)C(OC(=O)c2ccccc2)C1OC(=O)c1ccccc1` (stereo unspecified), for which the melting point lay within 86 to 88 °C. In turn, `Nc1nc(Cl)c(NC=O)c(N[C@@H]2CC=C(CO)C2)n1` yielded a melting point of 148 to 150 °C. On to `OCCn1cc2c(n1)CN=C(c1ccccc1)c1cc(Cl)ccc1-2`, for which the melting point lay within 173 to 175 °C. As to `CCOC(=O)C(S)C(=S)Cc1ccc(Cl)cc1` (stereo unspecified), the melting point is 36.5 to 37 °C. `CC(=O)N1CCC(C2=C(C#N)C(c3cccc4nonc34)c3c[nH]nc3N2)CC1` (stereo unspecified) had a melting point of 248 °C.

`O=C(NCCc1c[nH]cn1)c1ccccc1NS(=O)(=O)c1cccc(C(F)(F)F)c1` returned a melting point of 160 to 163 °C. `O=c1oc(-c2cccc(C(F)(F)F)c2)nc2cccc(Cl)c12` registered a melting point of 116 to 120 °C. `c1ccc2c(c1)cc1n2CC2(CC1)CO2` (stereo unspecified) had a melting point of 104 to 107 °C. Molecule `Cc1cc(C(O)(C(F)(F)F)C(F)(F)F)ccc1O` gave a melting point of 89.5 to 90.5 °C. Under `CCOC(=O)C=Cc1ccc(C(=O)Cc2ccccc2)cc1` stands 110 to 111 °C.

Molecule `CSc1nn2c(N)cc(C)nc2c1S(=O)(=O)c1ccc(F)cc1` came in with a melting point greater than 230 °C. Molecule `CCOC(=O)c1csc(N2N=C(c3ccc([N+](=O)[O-])cc3)c3cc4c(cc3CC2C)OCO4)n1` (stereo unspecified) had a melting point of 242 to 243 °C.

For `COc1ccc(C(=O)c2cnoc2C)cc1`, the melting point fell in the range of 78 to 79 °C. With `CC(=O)N(C)c1nc(C)co1`, the melting point was 27 to 29 °C. Consider `CC(=O)NC(=Cc1c[nH]c2cc(C)ccc12)C(=O)O`, for which the melting point was in the range of 204 to 206 °C. With `C=CCc1c(O)c(C)cc2c1C(C)(C)CC1(CC(C)(C)c3cc(O)c(C)cc3O1)O2` (stereo unspecified), the melting point lay within 102 to 104 °C. Molecule `CC(=O)C(=C1NCCCS1)[N+](=O)[O-]` came in with a melting point of 110 to 113 °C. `Cc1cc(OCc2sc(-c3ccc(C(F)(F)F)cc3)nc2C)ccc1OCC(=O)O` displayed a melting point of 174 to 176 °C. Under `CCCN(CCC)Cc1nnc(-c2ncn3c2[C@@H]2CCN2C(=O)c2c(Cl)cccc2-3)o1` stands 134 to 136 °C; under `CCC(Cn1cncn1)(C(=O)O)c1ccc(Cl)cc1Cl` (stereo unspecified), 206 to 208 °C; under `NS(=O)(=O)c1ccc(-c2cc(-c3nc(-c4ccc(C(F)(F)F)cc4)cc(C(F)(F)F)n3)ccn2)s1`, 262 °C. The value for `O=S(=O)(c1ccc(F)cc1)c1ccc(S)cc1` was 116 °C.

The record behind these values is a melting point compilation (Tetko et al.; mined from patent text by program, amines drawn as free bases though some values may be those of a salt).
